Experimental findings from patent US20060135587A1, “Method and compounds for promoting healing and reducing inflammation” (priority 2002, published 2006) are described below.

Assay type in all cases: in vivo
Assay [1] has as its system acute Con A-induced inflammation. Put plainly: Acute Con A-induced inflammation (paw oedema) in mice.
Assay [2] concerns cryogenic injury of the oral mucosa. The assay is described as follows: Healing of mouth ulcers caused by cryogenic injury in rats. Particulars: 50 mg/kg; morphological analysis. Here is the method:
A model of mouth ulcers using ulcers caused by cryogenic injury of the inner surface of the cheek was used for this purpose. Tests were performed on 110 male rats weighing 180-200 g, with 10 animals in each group. Ulcers were created in experimental animals by pressing a metal rod of 2.5 mm in diameter cooled in liquid nitrogen to the mucosa for 10 seconds under ether anaesthesia. Animals were kept in separate cages, with normal food and water ad libitum. Treatment was administered by spraying of the mucous membrane of the mouth, 24 hours after wounding and then daily until healing was complete. Compound 2 was administered to the animals at a dose of 50 mg/kg (2 ml of aqueous solution). The following groups of animals were used:
The progress of wound healing was examined morphologically on days 1, 3, 7 and 14. On the day 3 the lesions were progressively worse, resulting in the growth of necrotic changes with the formation of a wide necrotic zone at the bottom of the wound, and growth and expansion of acute inflammation involving the muscle, skin and mucosa beyond the wound area. On day 7, the wounds in half of the animals were partially cleared of the necrotic mass, accompanied by the development of granulation tissue at the bottom of the wound and in the adjacent mucosa. […]

Assay [3] relates to lesions of the gastric mucosa. Put plainly: Gastric lesions induced by electrostimulation of immobilised rats. Here is the method:
The models used gastric ulcers induced by
a) Electrostimulation of immobilised rats for 3 hours;
The compounds were administered intraperitoneally at a dose of 20 mg/kg; in the cryogenic ulcer model compound 2 was administered either intraperitoneally (10 mg/kg) or orally (20 mg/kg twice daily, ie. a total of 40 mg/kg/day) and was compared to orally-administered gastrocepin (1 mg/kg twice daily, ie. a total of 2 mg/kg/day).

The mark [4] stands for this setting: Table 4, 0.005M dose (Compound 2 19 mg/kg, Compound 7 16.4 mg/kg) + Con A.
[5] abbreviates: Table 4, 0.01M dose (Compound 2 38 mg/kg, Compound 7 32 mg/kg) + Con A.
Setting [6] is: Table 4, 0.015M dose (Compound 2 57 mg/kg, Compound 7 49 mg/kg) + Con A.
Where [7] appears, read: Table 4, 0.02M dose (Compound 2 76 mg/kg, Compound 7 65.6 mg/kg) + Con A.
The mark [8] stands for this setting: Healing effect over the course of 3 days.
Setting [9] is: Protective effect, 30 minutes before the test.

Molecules are shown by their SMILES.

As to `CC[n+]1cn(C)c(C(=O)NC)c1C(=O)NC.O=S(=O)([O-])c1ccccc1` [Compound 2, 1-methyl-3-ethyl-4,5-bis(N-methylcarbamoyl)-imidazolium benzenesulfonate], the “Reaction index (%)” value was 10.4 ± 2.0 % in assay [1] (Table 3, 10 mg/kg intra-peritoneally one hour before Con A, male CBA mice); 8.4 ± 0.9 % in assay [1] (Table 3, 50 mg/kg intra-peritoneally one hour before Con A, male CBA mice); 5.4 ± 2.0% in assay [1] (setting [4]); 7.7 ± 1.8% in assay [1] (setting [5]); 11.1 ± 3.5% in assay [1] (Table 4, 10 mg/kg + Con A); 5.3 ± 2.0% in assay [1] (setting [6]). Moreover, in assay [1] (setting [7]), the “Reaction index (%)” value was found to be 3.3 ± 2.0%. In addition, the “Paw oedema reduction (%)” value in assay [1] (setting [4]) turned out to be 66%; in assay [1] (setting [5]), 52%; in assay [1] (Table 4, 10 mg/kg + Con A), 33%; in assay [1] (setting [6]) it was 66%; in assay [1] (setting [7]), 77%. For the same molecule, in assay [1] (male mice), the “ED50, dose reducing paw oedema by 50% one hour after injection of Concanavalin A” value amounted to 33 mg/kg. In assay [2], the “healing of cryogenic injury of the oral mucosa compared to untreated controls” value is “more pronounced, earlier and more complete healing”. Moreover, the “% reduction of degree of ulceration” value is recorded as 50% in assay [3] (setting [8]) and 66% in assay [3] (setting [9]). Further, the “Average number of lesions per animal” value in assay [3] (setting [8]) is recorded as 1.7 ± 0.2; in assay [3] (Protective effect, 30 minutes before the test, 20 mg/kg intraperitoneally) it was 2.4 ± 0.8. In addition, the “% reduction of ulcerated area” value in assay [3] (setting [9]) turned out to be 91%. The molecule further had an Area of lesion in assay [3] (setting [9]) of 2.8 ± 2.1.
